According to patent US10934263B2, “Charged ion channel blockers and methods for use” (Nocion Therapeutics, Inc., priority 2019, dated 2021):

How the values were obtained:
[1] = PAMPA membrane permeability assay; format: in vitro ADME; conditions: PAMPA permeability coefficient, GIT lipid, buffer pH 7.4, 4 hours incubation
Description: The PAMPA assay (pION, Inc., Woburn Mass.) was used to determine the ability of compounds of the invention to cross an artificial lipid membrane by passive diffusion. Test compounds were dissolved in DMSO (10 mM) and diluted 200-fold in buffer (pION Inc., pH 7.4) to provide 50 uM stock solutions. Buffer (150 μL) was added to a UV blank plate and stock solutions (150 μL) were transferred to a UV reference plate. The blank and reference spectrum were read using a spectrophotometer. Stock solutions (200 μL) were added to the donor plate of the PAMPA sandwich plate and an accept plate painted with GIT lipid (pION Inc, 5 μL) was placed on top. Buffer (200 μL) was added to the acceptor plate and the PAMPA sandwich plate was incubated for 4 hours. Aliquots (150 μL) from the acceptor plate were added to a UV plate and read as acceptor spectrum. Aliquots (150 μL) of the donor solutions were added to a UV analysis plate and read as donor spectrum. The permeability coefficient of test compounds was calculated using PAMPA Explorer™ software (version 3.5.0.4) based on the AUC of the reference plate, the donor plate, and the acceptor plate.

[2] = target: T1, NaV1.7 (Homo sapiens, UniProt Q15858); test: Whole cell patch clamp, internal block of NaV1.7 current (compound in internal solution); format: cell-based; conditions: compound applied internally, manual patch clamp, read-out: Nav1.7 Intracellular Inhibition
T1 construct: expressed in transfected cells; tetracycline-inducible, kept under hygromycin and blasticidin
T1 sequence (Q15858 whole entry): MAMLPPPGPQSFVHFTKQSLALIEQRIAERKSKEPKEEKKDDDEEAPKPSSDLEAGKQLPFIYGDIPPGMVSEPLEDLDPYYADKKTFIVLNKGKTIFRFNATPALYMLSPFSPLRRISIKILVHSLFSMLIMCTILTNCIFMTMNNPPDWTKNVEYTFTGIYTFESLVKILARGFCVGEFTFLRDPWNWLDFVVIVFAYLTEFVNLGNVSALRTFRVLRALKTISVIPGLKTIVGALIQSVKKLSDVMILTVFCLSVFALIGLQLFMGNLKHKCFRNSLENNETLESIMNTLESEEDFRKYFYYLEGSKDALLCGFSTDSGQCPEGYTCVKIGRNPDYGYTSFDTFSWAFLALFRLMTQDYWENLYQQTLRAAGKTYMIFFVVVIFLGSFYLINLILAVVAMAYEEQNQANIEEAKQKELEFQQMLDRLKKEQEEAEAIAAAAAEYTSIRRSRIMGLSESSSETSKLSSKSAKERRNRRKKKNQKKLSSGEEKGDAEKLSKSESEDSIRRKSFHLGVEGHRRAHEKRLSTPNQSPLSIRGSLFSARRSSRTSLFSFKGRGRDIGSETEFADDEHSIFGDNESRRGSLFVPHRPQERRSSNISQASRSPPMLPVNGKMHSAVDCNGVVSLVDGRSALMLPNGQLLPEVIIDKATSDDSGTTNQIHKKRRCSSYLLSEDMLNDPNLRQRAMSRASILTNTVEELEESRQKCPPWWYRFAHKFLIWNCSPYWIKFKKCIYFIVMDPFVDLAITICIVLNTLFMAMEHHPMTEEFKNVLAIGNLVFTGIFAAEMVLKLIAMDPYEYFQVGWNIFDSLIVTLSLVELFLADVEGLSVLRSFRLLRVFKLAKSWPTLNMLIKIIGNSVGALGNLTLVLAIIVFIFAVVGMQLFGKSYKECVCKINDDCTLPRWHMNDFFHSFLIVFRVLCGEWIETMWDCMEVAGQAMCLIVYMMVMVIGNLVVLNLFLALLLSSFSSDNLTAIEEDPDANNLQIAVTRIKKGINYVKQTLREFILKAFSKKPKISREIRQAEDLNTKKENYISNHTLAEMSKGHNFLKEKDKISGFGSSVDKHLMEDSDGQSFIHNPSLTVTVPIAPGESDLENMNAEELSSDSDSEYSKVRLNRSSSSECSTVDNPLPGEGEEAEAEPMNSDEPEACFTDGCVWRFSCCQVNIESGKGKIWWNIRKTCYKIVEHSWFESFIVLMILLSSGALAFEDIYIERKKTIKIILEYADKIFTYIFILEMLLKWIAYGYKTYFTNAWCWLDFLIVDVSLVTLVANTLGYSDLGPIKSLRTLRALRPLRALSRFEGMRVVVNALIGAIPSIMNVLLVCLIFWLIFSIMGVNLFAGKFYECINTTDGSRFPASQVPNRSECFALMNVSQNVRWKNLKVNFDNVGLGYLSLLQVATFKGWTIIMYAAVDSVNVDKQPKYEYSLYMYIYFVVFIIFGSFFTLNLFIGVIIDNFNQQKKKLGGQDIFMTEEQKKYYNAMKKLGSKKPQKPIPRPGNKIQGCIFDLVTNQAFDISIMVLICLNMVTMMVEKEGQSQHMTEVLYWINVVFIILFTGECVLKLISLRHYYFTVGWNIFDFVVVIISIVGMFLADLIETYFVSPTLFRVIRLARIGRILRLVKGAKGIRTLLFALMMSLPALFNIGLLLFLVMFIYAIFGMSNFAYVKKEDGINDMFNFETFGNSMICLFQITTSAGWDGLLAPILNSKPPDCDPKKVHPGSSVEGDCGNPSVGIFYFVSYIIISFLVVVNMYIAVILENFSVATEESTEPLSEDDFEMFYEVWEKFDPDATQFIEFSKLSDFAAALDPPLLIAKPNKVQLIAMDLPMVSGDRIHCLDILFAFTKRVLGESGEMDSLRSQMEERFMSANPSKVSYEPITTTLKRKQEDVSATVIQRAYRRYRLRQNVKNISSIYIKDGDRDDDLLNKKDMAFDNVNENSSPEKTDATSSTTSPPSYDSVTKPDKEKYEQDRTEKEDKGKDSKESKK
Description: Representative compounds of the invention were synthesized according to the described methods and tested for the ability to inhibit voltage-gated sodium channels.
NaV1.7 was expressed upon induction with tetracycline. Cells were cultured in DMEM containing 10% dialyzed Fetal Bovine Serum (VWR, Radnor, Pa.), 1% Glutamax (VWR, Radnor, Pa.), 1% Penicillin-Streptomycin (VWR, Radnor, Pa.), 100 mg/L Hygromycin (Thermo Fisher Scientific, Waltham, Mass. and 5 mg/L Blasticidin (Alfa Aesar, Haverhill, Mass.). Cells were grown and maintained at 37° C. in a humidified environment containing 10% CO2 in air. Cells were detached from the culture flask for passage and harvested using 0.05% Trypsin-EDTA (Thermo Fisher Scientific, Waltham, Mass.). To induce NaV1.7, cells were induced with tetracycline (0.1-1 μg/mL, IBI Scientific, Peosta, Iowa) the day before recording and plated onto 24-well plates. Cells were washed with DPBS (VWR, Radnor, Pa.), trypsinized and then triturated five times in 10 mL of growth media to break apart cell aggregates. For one 24-well plate, 2 mL of cell suspension was mixed with 23 mL of fresh growth media and 0.1-1 μg/mL tetracycline added. 1 ml of mixed media with cells was then added to each well of a 24-well plate, with a 12 mm coverslip already placed in the bottom of the well. Cells were then incubated in 37° C. and 10% CO2 overnight.
The intracellular solution contained the following (in mM) CsCl 135, NaCl 10, EGTA 10, HEPES 10, MgCl2 2, adjusted to pH 7.2 with CsOH. The external solution was a normal Ringer solution containing (in mM) NaCl 155, HEPES 10, glucose 10, KCl 3.5, CaCl2 1.5, MgCl2 1 adjusted to pH 7.4 with NaOH. CsCl is from Alfa Aesar, Haverhill, Mass. All other chemicals are from Sigma-Aldrich, St. Louis, Mo. In order to test the degree of internal block by test compounds the compounds were dissolved in internal solution at the indicated test concentration. […] In order to test the degree of external block by test compounds the compounds were dissolved in external solution at the indicated test concentration.
18-24 hours after cells were induced with tetracycline, coverslips were placed into a chamber filled with Normal Ringer solution at room temperature and the chamber placed on a microscope. Pipettes were pulled from borosilicate glass on a P97 puller (Sutter Instrument, Novato, Calif.) and polished with a MF-830 Microforge (Narishige International USA, Inc, Amityville, N.Y.) to have a resistance of 1.5-2.5 MΩ when filled with CsCl internal solution at room temperature. Healthy cells (those that are round and translucent with no visible blemishes) were chosen for seal formation. A seal was formed between the pipette and the cell, and a brief pulse of suction was used to “break in” and establish the whole-cell configuration. The membrane potential was held at −100 mV before the voltage protocol began. Only cells with series resistance between 1.5-5 MΩ were retained for analysis. The voltage protocol was as follows: Cells were held at −100 mV for 12 ms followed by a hyperpolarizing step to −105 mV for 12 ms to monitor the leak. Cells were then stepped back to −100 mV for 40 ms. Cells were then depolarized to −20 mV for 10 ms and then returned to −100 mV for 26 ms.
Once the recording was started, the voltage protocol was run at 30 second intervals for 5 minutes to get a stable baseline. This was followed by four 30-second periods of 5 Hz stimulation of the same voltage protocol separated by 1 minute of rest which was then followed by 0.33 Hz stimulation after the last train. Currents were recorded using PatchMaster software with Heka EPC10 (HEKA Electronics, Lambrecht, Germany). Only cells with inward current amplitudes at −20 mV between 400 pA and 4 nA were accepted. In addition, cells having leak currents greater than 10% of their current amplitudes were discarded. […]

SMILES	PAMPA (10^−6 cm/s) [1]	inhibition at 32 µM [2] [%]	inhibition at 10 µM [2] [%]
CCC(C(=O)Nc1c(C)cccc1C)[n+]1ccn(C)c1.[Br-] (stereo not drawn) [Compound 4A, 3-(1-((2,6-dimethylphenyl)amino)-1-oxobutan-2-yl)-1-methyl-1H-imidazol-3-ium bromide]	+ (<0.1 10^−6 cm/s)	40 to 70	
Cc1cccc(C)c1NC(=O)C[n+]1cccc(O)c1 [Compound 42]			< 40
Cc1cccc(C)c1NC(=O)C[n+]1cc2ccccn2c1 [Compound 35]			40 to 70
Cc1cccc(C)c1NC(=O)C[n+]1ccccc1C.[Br-] [Compound 5A, 1-(2-((2,6-dimethylphenyl)amino)-2-oxoethyl)-2-methylpyridin-1-ium bromide]	+ (<0.1 10^−6 cm/s)	70 to 95	
Cc1cccc(C)c1NC(=O)C[n+]1ccn(C(C)C)c1 [Compound 58]	+ (<0.1 10^−6 cm/s)		40 to 70
Cc1cccc(C)c1NC(=O)C[n+]1ccn(C(C)(C)C)c1 [Compound 36]	+ (<0.1 10^−6 cm/s)		70 to 95
Cc1cccc(C)c1NC(=O)C[n+]1cccn1CC(C)C.[Br-] [Compound 27A]	+ (<0.1 10^−6 cm/s)		
Cc1cc(C)c(NC(=O)C[n+]2ccccc2)c(C)c1.[Br-] [Compound 8A, 1-(2-(mesitylamino)-2-oxoethyl)pyridin-1-ium bromide]	+ (<0.1 10^−6 cm/s)	< 40	
Cc1cccc(C)c1OC(=O)C[n+]1cccn1C1CCCCC1 [Compound 111]			> 95
Cc1cccc(C)c1NC(=O)C[n+]1c(C)ccc(-c2ccccc2)c1C.[Br-] [Compound 23A]	+ (<0.1 10^−6 cm/s)	> 95	
Cc1cccc(C)c1NC(=O)C[n+]1ccnc(C)c1C [Compound 55]			40 to 70
Cc1cccc(C)c1NC(=O)C[n+]1cccc(C#N)c1 [Compound 52]			70 to 95
Cc1cccc(C)c1NC(=O)C[n+]1cccc(F)c1 [Compound 44]			70 to 95
CC(=O)Nc1ccc[n+](CC(=O)Nc2c(C)cccc2C)c1 [Compound 48]	+ (<0.1 10^−6 cm/s)		> 95
Cc1cccc(C)c1NC(=O)C[n+]1cccc2ccccc21.[Br-] [Compound 18A]	+ (<0.1 10^−6 cm/s)	> 95	
Cc1cccc(C)c1NC(=O)C[n+]1ccn(Cc2ccccc2)c1 [Compound 38]			70 to 95
Cc1ccc[n+](CC(=O)Nc2c(C)cccc2C)c1 [Compound 39]			70 to 95
Cc1cccc(C)c1NC(=O)C[n+]1cccc(Cl)c1 [Compound 45]			70 to 95
Cc1cccc(C)c1NC(=O)C[n+]1cccc(C2CCCCC2)c1 [Compound 20A]		70 to 95	
Cc1cccc(C)c1NC(=O)C[n+]1ccn(-c2ccc(Cl)cc2)c1 [Compound 64]	++ (0.1-2.0 10^−6 cm/s)		
CCOC(=O)c1c[n+](CC(=O)Nc2c(C)cccc2C)cn1C [Compound 61]			40 to 70
Cc1cccc(C)c1NC(=O)C[n+]1cccn1C1CCCCC1.[Br-] [Compound 28A]	+ (<0.1 10^−6 cm/s)		
Cc1cccc(C)c1NC(=O)C[n+]1cccc(C(C)C)c1 [Compound 31A]			70 to 95
COc1ccc[n+](CC(=O)Nc2c(C)cccc2C)c1 [Compound 43]			70 to 95
CCc1cc[n+](CC(=O)Nc2c(C)cccc2C)cc1 [Compound 19A]		70 to 95	
CCCn1cc[n+](CC(=O)Nc2c(C)cccc2C)c1 [Compound 57]			70 to 95
CCNC(=O)Cn1ccc[n+]1CC(=O)Nc1c(C)cccc1C.[Br-] [Compound 30A, 2-(2-((2,6-dimethylphenyl)amino)-2-oxoethyl)-1-(2-(ethylamino)-2-oxoethyl)-1H-pyrazol-2-ium bromide]	++ (0.1-2.0 10^−6 cm/s)		
Cc1cccc(C)c1NC(=O)C[n+]1ccn(-c2ccccc2)c1 [Compound 37]			70 to 95
